Patent publication US4198506A, “2-Carboxyalkyl-2,3-dihydro-6-mercapto-s-triazolo[4,3-b]-pyridazin-3-ones” (Bristol-Myers Company, priority 1979, dated 1980)
In brackets after ≈: the same amount, converted by molar mass. Several values for one entry are separate records, joined by “and”; a condition that tells them apart may be missing. Identical values can stand only once. Like-named read-outs stand apart in the source and are kept apart here.

Legend:
[1] = system: rabbits; test: Preliminary nephrotoxicity study; type: in vivo; conditions: two rabbits, 100 mg./kg. intravenously
Protocol: A preliminary nephrotoxicity study was carried out by administration of the test compound to a group of two rabbits at 100 mg./kg. intravenously.

[2] = system: S. aureus (Methicillin-R); test: In vitro activity (geometric mean MIC, serial dilution); type: cell-based; conditions: Staphylococcus aureus; 15 strains; Mueller-Hinton agar, inoculum 10^4 dilution; MIC cutoff 200 mcg./ml.
[3] = system: Ps. aeruginosa; test: In vitro antibacterial activity (Steers' agar dilution MIC); type: cell-based
[4] = system: Miscellaneous (Salmonella, Shigella, Citrobacter); test: microbe, parasite or virus in culture; conditions: read-out: Geometric Mean MIC
[5] = system: Pr. rettgeri; test: In vitro antibacterial activity (Steers' agar dilution MIC); type: cell-based; conditions: Providencia rettgeri
[6] = system: B. anthracis; test: microbe, parasite or virus in culture; type: cell-based; conditions: Bacillus anthracis
[7] = system: Proteus (indole +); test: In vitro activity (geometric mean MIC, serial dilution); type: cell-based; conditions: read-out: Geometric Mean MIC
[8] = system: E. coli Juhl; test: In vivo activity (Mice, sc); conditions: several determinations listed
Text: |In vivo Activity of BB-[…] and Related Compounds (Mice, sc) | (PD50 (mgm./kg.)

[9] = system: E. coli (Penicillinase +); test: In vitro activity (geometric mean MIC, serial dilution); type: cell-based; conditions: Escherichia coli; 7 strains; Mueller-Hinton agar, inoculum 10^4 dilution; MIC cutoff 200 mcg./ml.; read-out: Geometric Mean MIC
[10] = system: Pr. vulgaris; test: In vitro antibacterial activity (Steers' agar dilution MIC); type: cell-based; conditions: Proteus vulgaris
[11] = Pseudomonas aeruginosa, table 2 (BB-S493), Ps. aeruginosa A9843, read-out: MIC
[12] = table 2 (BB-S493), Ps. aerugionsa A9930
[13] = table 4 (BB-S 525), Ps. aeruginosa, 1st line
[14] = table 4 (BB-S 525), Ps. aeruginosa, 2nd line
[15] = table 2 (BB-S493), Pr. rettgeri A15167
[16] = table 4 (BB-S 525), Pr. rettgeri
[17] = table 2 (BB-S493), B. anthracis A9504
[18] = table 4 (BB-S 525), B. anthracis
[19] = table 2 (BB-S493), Pr. vulgaris A9436, read-out: MIC
[20] = table 2 (BB-S493), Pr. vulgaris A9699, read-out: MIC
[21] = table 4 (BB-S 525), Pr. vulgaris, 1st line, read-out: MIC

In the case of `CNCc1ccccc1CC(=O)N[C@@H]1C(=O)N2C(C(=O)O)=C(CSc3ccc4nn(CC(=O)O)c(=O)n4n3)CS[C@H]12` [BB-S479, 7-[o-(Methylaminomethyl)phenylacetamido]-3-(2-carboxymethyl-2,3-dihydro-s-triazolo[4,3-b]pyridazin-3-on-6-ylthiomethyl)-3-cephem-4-carboxylic Acid], the nephrotoxic potential [1] is reported as “little nephrotoxic potential”, the MIC [2] is reported as 35 µg/mL (≈ 58.4 µM) and the MIC [3, 11] is reported as over 100 µg/mL. For the same molecule, the MIC [3, 12] was over 100 µg/mL, the MIC [3, 13] was over 100 µg/mL and the MIC [3, 14] was over 100 µg/mL. It also gave an MIC [4] of 0.4 µg/mL (≈ 0.667 µM), an MIC [5, 15] of 0.1 µg/mL (≈ 0.167 µM) and an MIC [5, 16] of 0.8 µg/mL (≈ 1.33 µM). For the same molecule, the MIC [6, 17] was 0.025 µg/mL (≈ 0.0417 µM), the MIC [6, 18] was 0.2 µg/mL (≈ 0.334 µM) and the MIC ([7]; 14 strains, Mueller-Hinton agar, inoculum 10^4 dilution, MIC cutoff 200 mcg./ml.) was 0.2 µg/mL (≈ 0.334 µM). For the same molecule, the ED50 ([8]; Escherichia coli, read-out: PD50) was 0.19 mg/kg, the PD50 [8] was 0.15 mgm./kg. and 0.12 mgm./kg and the MIC [9] was 2.6 µg/mL (≈ 4.34 µM). For the same molecule, the MIC [10, 19] was 0.1 µg/mL (≈ 0.167 µM), the MIC [10, 20] was 0.8 µg/mL (≈ 1.33 µM) and the MIC [10, 21] was 0.2 µg/mL (≈ 0.334 µM). It also gave an MIC ([10]; table 4 (BB-S 525), Pr. vulgaris, 2nd line, read-out: MIC) of 0.8 µg/mL (≈ 1.33 µM).

With `Cn1nnnc1SCC1=C(C(=O)O)N2C(=O)[C@@H](NC(=O)[C@H](O)c3ccccc3)[C@H]2SC1` [Cefamandole, reference compound] the MIC [2] was 2.4 µg/mL (≈ 5.19 µM), the MIC [3, 11] was over 100 µg/mL and the MIC [3, 12] was over 100 µg/mL. The MIC [3, 13] was over 100 µg/mL, the MIC [3, 14] was over 100 µg/mL and the MIC [4] was 0.3 µg/mL (≈ 0.649 µM). The MIC [5, 15] was 0.1 µg/mL (≈ 0.216 µM), the MIC [5, 16] was 0.1 µg/mL (≈ 0.216 µM) and the MIC [6, 17] was 0.2 µg/mL (≈ 0.432 µM). It also gave an MIC [6, 18] of 0.05 µg/mL (≈ 0.108 µM), an MIC [7] of 0.5 µg/mL (≈ 1.08 µM) and an MIC [9] of 5.7 µg/mL (≈ 12.3 µM). It also gave an MIC [10] of 50 µg/mL (≈ 108 µM), an MIC [10, 19] of 0.2 µg/mL (≈ 0.432 µM) and an MIC [10, 20] of 25 µg/mL (≈ 54.1 µM). For the same molecule, the MIC [10, 21] was 0.2 µg/mL (≈ 0.432 µM).
